Results as given in patent publication US20220372014A1, “NEUROPROTECTIVE COMPOUNDS AND METHODS OF USE THEREOF” (The Johns Hopkins University, priority 2019, published 2022).

Tests used:
[1] = test system: HeLa cells or neuronal cells; assay: Cell death assay of Example 3 (MNNG, alamarBlue; protection against parthanatos, Table 4); assay type: cell-based; conditions: 1 μM test compound, MNNG-induced cell death, alamarBlue
Description: Cell death assay: 200 μl of cells (HeLa cells or neuronal cells) culture (1×10^4 cells/well) were plated into the wells of a sterile 96-well cell culture plate. The cells were incubated for 18 hours at 37° C. The medium was removed and changed with 100 μl/well of 1 μM test compound. Incubate for 1 hours at 37° C. Ten μl of 500 μM MNNG (N-Methyl-N′-nitro-N-nitrosoguanidine) was added to each well. The medium was aspirated well and incubated for 15 min at 37° C. The cells were washed with the fresh medium. The medium was changed with 1 μM of test compound and incubated for 18 hours at 37° C. 10 μl/well of alamarBlue reagent was added directly to the well and incubated for 1 to 4 hours at 37° C. Fluorescence was measured using a fluorescence excitation wavelength of 560 nm and emission at 590 nm. The percentage of cell death was determined as the ratio of live to dead cells compared with the percentage of cell death in control wells to account for cell death attributed to mechanical stimulation of the cultures.

MIF = target: T1, MIF (Homo sapiens, UniProt P14174); assay: Nuclease assay of Example 3 (MIF inhibitory activity, Table 4); assay type: biochemical; parameters: (%) inhibition of MIF nuclease activity: concentration or dose not given beside the values; conditions: nuclease assay of Example 3
T1 sequence (P14174 1-115): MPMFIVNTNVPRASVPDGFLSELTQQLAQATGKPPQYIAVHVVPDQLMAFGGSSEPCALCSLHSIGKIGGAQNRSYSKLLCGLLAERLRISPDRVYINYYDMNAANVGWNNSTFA
Description: A rapafucin library was synthesized as described in WO2017/136708 and Guo et al. (2018) Nat. Chem. 11:254-63. The hybrid macrocyclic library consisted of 45,000 compounds in pools of 15 individual compounds. The library compounds were screened for MIF inhibitory activity using a nuclease assay as detailed in FIG. 1 and below.
Nuclease assay: Human genomic DNA (200 ng/reaction, Promega), pcDNA (200 ng/reaction) or PS^30 and its related and non-related substrates (1 μM) was incubated with wild type MIF or its variants at a final concentration of 0.25-8 μM as indicated in 10 mM Tris-HCl buffer (pH 7.0) containing 10 mM MgCl2 and 1 mM DTT or specific buffer as indicated, for 1 h (with pcDNA and small DNA substrates) or 4 h (with human genomic DNA) at 37° C. The reaction was terminated with loading buffer containing 10 mM EDTA and incubation on ice. The human genomic DNA samples were immediately separated on a 1.2% pulse field certified agarose in 0.5×TBE buffer with initial switch time of 1.5 s and a final switch time of 3.5 s for 12 h at 6 V/cm. pcDNA samples were determined by 1% agarose gel. Small DNA substrates were separated on 15% or 25% TBE-urea polyacrylamide (PAGE) gel or 20% TBE PAGE gel. Then gel was stained with 0.5 μg/ml Ethidium Bromide (EtBr) followed by electrophoretic transfer to nylon membrane. Then, Biotin-labeled DNA is further detected by chemiluminescence using Chemiluminescent Nucleic Acid Detection Module (Thermo Scientific).
Structure-activity relationship (SAR) analysis was then conducted on the compounds identified as having MIF inhibitory activity. Compounds having the structure of Formula (I) were then synthesized as shown in Example 1 and tested for MIF inhibitory activity using the nuclease assay described herein and neuronal protection via a cell death assay as detailed below.

SMILES	(%) inhibition of cell death [1] [%]	(%) inhibition of MIF nuclease activity (MIF) [%]
COc1ccc(CC[C@H]2OC(=O)[C@@H]3CCCCN3C(=O)C(=O)C(C)(C)COC(=O)C=CCCN(C)C(=O)C(c3ccccc3)NC(=O)[C@H](COC(C)(C)C)N(C)C(=O)[C@@H](CC(C)C)NC(=O)CN(C)C(=O)COc3cccc2c3)cc1OC (some centres unmarked) [compound 15]	53.4	8.7
COc1ccc(CC[C@H]2OC(=O)[C@@H]3CCCCN3C(=O)C(=O)C(C)(C)COC(=O)C=CCCN(C)C(=O)[C@H](Cc3ccccc3)NC(=O)[C@H](COC(C)(C)C)N(C)C(=O)C(c3ccccc3)NC(=O)[C@H](C)N(C)C(=O)COc3cccc2c3)cc1OC (some centres unmarked) [compound 53]	58.3	14.1
COc1ccc(CC[C@H]2OC(=O)[C@@H]3CCCCN3C(=O)C(=O)C(C)(C)COC(=O)C=CCCN(C)C(=O)[C@@H]3CCCN3C(=O)[C@H](Cc3ccccc3)N(C)C(=O)[C@@H](C)NC(=O)CN(C)C(=O)COc3cccc2c3)cc1OC [compound 71]	57.0	25.3
COc1ccc(CC[C@H]2OC(=O)[C@@H]3CCCCN3C(=O)C(=O)C(C)(C)COC(=O)C=CCCN(C)C(=O)[C@H](C)NC(=O)[C@H](COC(C)(C)C)N(C)C(=O)C(c3ccccc3)NC(=O)CN(C)C(=O)COc3cccc2c3)cc1OC (some centres unmarked) [compound 32]	54.3	11.2
COc1ccc(CC[C@H]2OC(=O)[C@@H]3CCCCN3C(=O)C(=O)C(C)(C)COC(=O)C=CCCN(C)C(=O)CNC(=O)[C@H](COC(C)(C)C)N(C)C(=O)C(c3ccccc3)NC(=O)[C@H](C)N(C)C(=O)COc3cccc2c3)cc1OC (some centres unmarked) [compound 46]	52.5	21.7
COc1ccc(CC[C@H]2OC(=O)[C@@H]3CCCCN3C(=O)C(=O)C(C)(C)COC(=O)C=CCCN(C)C(=O)[C@@H](C)NC(=O)[C@H](COC(C)(C)C)N(C)C(=O)[C@@H](CC(C)C)NC(=O)CN(C)C(=O)COc3cccc2c3)cc1OC [compound 3]	40.6	21.0
COc1ccc(CC[C@H]2OC(=O)[C@@H]3CCCCN3C(=O)C(=O)C(C)(C)COC(=O)C=CCCN(C)C(=O)[C@@H]3CCCN3C(=O)[C@H](COC(C)(C)C)N(C)C(=O)C(c3ccccc3)NC(=O)[C@H](C)N(C)C(=O)COc3cncc2c3)cc1OC (some centres unmarked) [compound 126]	46.8	6.7
COc1ccc(CC[C@H]2OC(=O)[C@@H]3CCCCN3C(=O)C(=O)C(C)(C)COC(=O)C=CCCN(C)C(=O)[C@H](CC(C)C)NC(=O)[C@H](C(C)C)N(C)C(=O)[C@@H](Cc3ccccc3)NC(=O)[C@H](CC(C)C)N(C)C(=O)CCC(=O)Nc3cccc2c3)cc1OC [compound 81]	49.8	12.3
COCC[C@@H]1NC(=O)[C@H](COC(C)(C)C)N(C)C(=O)C(c2ccccc2)NC(=O)[C@H](C)N(C)C(=O)COc2cccc(c2)[C@@H](CCc2ccc(OC)c(OC)c2)OC(=O)[C@@H]2CCCCN2C(=O)C(=O)C(C)(C)COC(=O)C=CCCN(C)C1=O (some centres unmarked) [compound 50]	56.4	18.0
COc1ccc(CC[C@H]2OC(=O)[C@@H]3CCCCN3C(=O)C(=O)C(C)(C)COC(=O)C=CCCN(C)C(=O)[C@@H]3CCCN3C(=O)[C@H](COC(C)(C)C)N(C)C(=O)[C@H](Cc3ccc(F)cc3)NC(=O)[C@H](C)N(C)C(=O)COc3cccc2c3)cc1OC [compound 103]	22.5	16.8
COc1ccc(CC[C@H]2OC(=O)[C@@H]3CCCCN3C(=O)C(=O)C(C)(C)COC(=O)C=CCCN(C)C(=O)[C@@H](C)NC(=O)[C@H](COC(C)(C)C)N(C)C(=O)C(c3ccccc3)NC(=O)CN(C)C(=O)COc3cccc2c3)cc1OC (some centres unmarked) [compound 33]	53.4	12.6
COc1ccc(CC[C@H]2OC(=O)[C@@H]3CCCCN3C(=O)C(=O)C(C)(C)COC(=O)C=CCCN(C)C(=O)[C@H](CC3CCCCC3)NC(=O)[C@H](C(C)C)N(C)C(=O)[C@@H](Cc3ccccc3)NC(=O)[C@H](CC(C)C)N(C)C(=O)CCC(=O)Nc3cccc2c3)cc1OC [compound 87]	51.3	17.1
COc1ccc(CC[C@H]2OC(=O)[C@@H]3CCCCN3C(=O)C(=O)C(C)(C)COC(=O)C=CCCN(C)C(=O)[C@@H]3CCCN3C(=O)[C@H](COC(C)(C)C)N(C)C(=O)C(c3ccccc3)NC(=O)[C@H](C)N(C)C(=O)COc3cccc2c3)c(O)c1OC (some centres unmarked) [compound 119]	60.7	19.7
COc1ccc(CC[C@H]2OC(=O)[C@@H]3CCCCN3C(=O)C(=O)C(C)(C)COC(=O)C=CCCN(C)C(=O)[C@H](C)NC(=O)[C@H](Cc3ccccc3)N(C)C(=O)[C@@H](C)NC(=O)CN(C)C(=O)COc3cccc2c3)cc1OC [compound 62]	53.7	13.1
COc1ccc(CC[C@H]2OC(=O)[C@@H]3CCCCN3C(=O)C(=O)C(C)(C)COC(=O)C=CCCN(C)C(=O)[C@H](C(C)C)NC(=O)[C@H](COC(C)(C)C)N(C)C(=O)[C@@H](CC(C)C)NC(=O)CN(C)C(=O)COc3cccc2c3)cc1OC [compound 14]	41.6	11.2
COc1ccc(CC[C@H]2OC(=O)[C@@H]3CCCCN3C(=O)C(=O)C(C)(C)COC(=O)C=CCCN(C)C(=O)[C@@H]3CCCN3C(=O)[C@H](COC(C)(C)C)N(C)C(=O)[C@H](c3ccccc3)NC(=O)[C@H](C)N(C)C(=O)COc3cc(F)cc2c3)cc1OC (racemic) [compound 154]	46.2	38.2
COc1ccc(CC[C@H]2OC(=O)[C@@H]3CCCCN3C(=O)C(=O)C(C)(C)COC(=O)C=CCCN(C)C(=O)[C@@H]3CCCN3C(=O)[C@H](COC(C)(C)C)N(C)C(=O)C(c3ccccc3)NC(=O)[C@H](C)N(C)C(=O)COc3cccc2c3)c(OC)c1OC (some centres unmarked) [compound 124]	55.9	−2.7
COc1ccc(CC[C@H]2OC(=O)[C@@H]3CN(C)CCN3C(=O)C(=O)C(C)(C)COC(=O)C=CCCN(C)C(=O)[C@@H]3CCCN3C(=O)[C@H](COC(C)(C)C)N(C)C(=O)C(c3ccccc3)NC(=O)[C@H](C)N(C)C(=O)COc3cccc2c3)cc1OC (some centres unmarked) [compound 118]	50.8	9.0
COc1ccc(CC[C@H]2OC(=O)[C@@H]3CCCCN3C(=O)C(=O)C(C)(C)COC(=O)C=CCCN(C)C(=O)[C@@H]3CCCN3C(=O)[C@H](COC(C)(C)C)N(C)C(=O)[C@@H](CC(C)C)NC(=O)CN(C)C(=O)COc3cccc2c3)cc1OC [compound 11]	48.9	25.6
COc1ccc(CC[C@H]2OC(=O)[C@@H]3CCCCN3C(=O)C(=O)C(C)(C)COC(=O)C=CCCN(C)C(=O)[C@@H](Cc3ccccc3)NC(=O)[C@H](COC(C)(C)C)N(C)C(=O)C(c3ccccc3)NC(=O)CN(C)C(=O)COc3cccc2c3)cc1OC (some centres unmarked) [compound 39]	57.5	31.1
COc1ccc(CC[C@H]2OC(=O)[C@@H]3CCCCN3C(=O)C(=O)C(C)(C)COC(=O)C=CCCN(C)C(=O)[C@H](C(C)C)NC(=O)[C@H](COC(C)(C)C)N(C)C(=O)C(c3ccccc3)NC(=O)CN(C)C(=O)COc3cccc2c3)cc1OC (some centres unmarked) [compound 44]	52.2	30.0
COc1ccc(CC[C@H]2OC(=O)[C@@H]3CCCCN3C(=O)C(=O)C(C)(C)COC(=O)C=CCCN(C)C(=O)[C@@H](CC(C)C)NC(=O)[C@H](COC(C)(C)C)N(C)C(=O)C(c3ccccc3)NC(=O)[C@H](C)N(C)C(=O)COc3cccc2c3)cc1OC (some centres unmarked) [compound 52]	61.0	9.9
